Assay results as given in patent publication US9206199B2, “Inhibitors of the renal outer medullary potassium channel” (Merck Sharp & Dohme Corp., priority 2011, dated 2015).
Like-named read-outs stand apart in the source and are kept apart here.

Experiments:
Kir1.1 (ROMK1) = Kir1.1 (ROMK1) (Homo sapiens (Human), UniProt P48048); experiment: Electrophysiology Assay (IonWorks Quattro whole cell voltage clamp)
Experimental: Chinese hamster ovary cells stably expressing Kir1.1 channels were maintained in T-75 flasks in cell culture media in a humidified 10% CO2 incubator at 37° C. Prior to an experiment, Kir1.1 expression was induced by overnight incubation with 1 mM sodium butyrate. […] After centrifugation, the cell pellet was resuspended in approximately 4.0 mL of bath solution and placed in the IonWorks instrument. The intracellular solution consisted of (in mM): 80 K gluconate, 40 KCl, 20 KF, 3.2 MgCl2, 3 EGTA, 5 Hepes, pH 7.4. Electrical access to the cytoplasm was achieved by perforation in 0.13 mg/mL amphotericin B for 4 min. […] Voltage protocols and current recordings were performed using the IonWorks HT software/hardware system. Currents were sampled at 1 kHz. No correction for liquid junction potentials was used. The test pulse, consisting of a 100 ms step to 0 mV from a holding potential of −70 mV, followed by a 100 ms voltage ramp from −70 mV to +70 mV, was applied before and after a 6 min compound incubation period. Test compounds were prepared by diluting DMSO stock solutions into the bath solution at 3× the final concentration and placed in the instrument in 96-well polypropylene plates. Current amplitudes were measured using the IonWorks software.

hROMK (hKir1.1) = hROMK (hKir1.1) (Homo sapiens (Human), UniProt P48048); experiment: Thallium Flux Assay; assay type: cell-based
Sequence of hROMK (hKir1.1) (P48048 whole entry): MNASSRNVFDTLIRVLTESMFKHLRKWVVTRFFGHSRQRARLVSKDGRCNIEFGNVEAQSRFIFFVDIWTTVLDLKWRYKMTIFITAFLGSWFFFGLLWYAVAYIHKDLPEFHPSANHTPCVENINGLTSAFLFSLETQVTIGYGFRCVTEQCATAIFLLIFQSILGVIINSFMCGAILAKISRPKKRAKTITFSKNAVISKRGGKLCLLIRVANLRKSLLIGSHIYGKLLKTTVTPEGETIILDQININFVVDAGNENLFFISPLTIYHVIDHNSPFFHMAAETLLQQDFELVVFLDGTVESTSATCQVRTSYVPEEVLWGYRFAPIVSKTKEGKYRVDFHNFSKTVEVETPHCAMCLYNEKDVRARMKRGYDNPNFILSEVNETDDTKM
Experimental: At >80% confluency, aspirate the media from the flask and rinse with 10 mL Calcium/Magnesium-free PBS. […] To dislodge the cell, gently bang the side of the flask with your hand. Triturate the cells completely and then transfer the cells to 25 mL complete media. Centrifuge at 1,500 rpm for 6 min followed by resuspension in complete growth media and determine cell concentration. […] Under ideal growth conditions and appropriate tissue culture practices, this cell line is stable for 40-45 passages. FluxOR Kit Components (Invitrogen F10017) • FluxOR™ Reagent (Component A) • FluxOR™ Assay Buffer (Component B)—10× Concentrate • PowerLoad™ Concentrate (Component C)—100× Concentrate • Probenecid (Component D)—Lyophilized sample is kept at −20° C. Water soluble, 100× after solubilization in 1 mL water. […] Store at 4° C. • Thallium sulfate (Tl2SO4) Concentrate (Component G)—50 mM in water. […]
The fluorescence intensity of wells containing 3 μM of a standard control ROMK inhibitor of the present invention is used to define the ROMK-sensitive component of thallium flux. Fluorescence in the presence of test compounds is normalized to control values to provide % fluorescence change.

Sequence of Kir1.1 (ROMK1) (P48048 whole entry): as above

O=C1OCCc2cc([C@@H]3CN4CCN(C(=O)Cc5ccc(-n6cnnn6)nc5)C[C@H]4CO3)ccc21 [Example 1]
IC50 (Kir1.1 (ROMK1)): 60 nM

Cc1nc(-n2cnnn2)ccc1CC(=O)N1CCN2C[C@H](c3ccc(F)c(C#N)c3F)OC[C@@H]2C1 [Example 89, 2,6-difluoro-3-[(3S,9aS)-8-{[2-methyl-6-(1H-tetrazol-1-yl)pyridin-3-yl]acetyl}octahydropyrazino[2,1-c][1,4]oxazin-3-yl]benzonitrile]
IC50 (hROMK (hKir1.1)): 70 nM

N#Cc1cc([C@@H]2CN3CCN(C(=O)Cc4cnc(-n5cnnn5)nc4)C[C@H]3CO2)ccc1F [Example 142, 2-fluoro-5-[(3R,9aS)-8-{[2-(1H-tetrazol-1-yl)pyrimidin-5-yl]acetyl}octahydropyrazino[2,1-c][1,4]oxazin-3-yl]benzonitrile]
IC50 (hROMK (hKir1.1); HEK293 cells stably expressing hROMK (hKir1.1), FLIPR-Tetra, read-out: Thallium Flux IC50): 100 nM
